Literature values as cited in patent US20060111347A1, “Substituted sulfones and methods of use” (AMGEN INC., priority 2004, published 2006).
No end group written: not given here.

Conditions: degraded by peptidases

RPPGFSPFR [BK, Bradykinin]
half-life of BK in plasma: approximately 17 seconds
